This note sets out measurements from patent publication US20260283950A1, “TRI-AZOLE ANTIFUNGAL COMPOSITIONS” (priority 2023, published 2026).

Series [1] is described as follows: Preparation of solutions in semifluorinated alkanes, appearance of the composition. In kind it is physicochemical. The method, then:
14 mg efinaconazole (purity >99%) is weighed in a 5-ml glass vial; 2 ml F6H8 (Novaliq, purity >99%) is added into the vial by using a pipette, closed with aluminium crimp cap and shaken for 4 hours at 280 mpm, at RT.
20 mg efinaconazole (purity >99%) is weighed in a 5-ml glass vial; the needed volume of the cosolvent is added into the vial by using a pipette; the vial is shaken by hand gentle; the needed volume of F6H8 (Novaliq, purity >99%) is added by using a pipette, closed with aluminium crimp cap and shaken for 4 hours at 280 mpm, at RT.
Following the procedure described in the Examples 1 and 2, the following compositions were prepared (Table 1):
20 mg terbinafine (free base; purity >98%) is weighed in a 5-ml glass vial; 2 ml F6H8 (Novaliq, purity >99%) is added into the vial by using a pipette, closed with aluminium crimp cap and shaken overnight at 280 mpm, at RT.
Following the aforementioned procedure the following compositions were prepared (Table 6): […]

The next series relates to T. interdigitale. The experiment in a line: In vitro nail penetration/inhibition model (Bovine Hoof Sheets soaked in product, zone of inhibition). The note with it: BHS soaked 24 hours in product, incubation at 28° C. 5 days. Type of series: cell-based. The method, then:
Three test products containing 0.1% to 10% efinaconazole were tested in vitro for their capabilities to inhibit growth of a representative dermatophyte (T. interdigitale) that is known to cause onychomycosis and tinea pedis in humans: • (a) 0.1% efinaconazole, dissolved in a mixture of F6H8 and 2-propanol (10:1 v/v %), non-aqueous (8-9), • (b) 1.0% efinaconazole, dissolved in a mixture of F6H8 and 2-propanol (9:1 v/v %), non-aqueous (4-7), • (c) 10% efinaconazole, aqueous commercial product (“Jublia”; Bausch Health, Bridgewater, USA) (10-11). As reference products, DMSO was utilized as negative control (1), terbinafine (100 μg/ml in DMSO) as positive control (2) and F6H8 as vehicle control (3). […] Bovine Hoof Sheets (BHS; 400 μm thickness, 16 mm diameter), an established in vitro surrogate for human nails in transungual permeation studies, were soaked in excess in the three test products and the three reference products for 24 hours. Afterwards the BHS were taken from the soaking baths and remaining residues of the test and reference products were thoroughly removed. Then, BHS were transferred and placed onto freshly plated T. interdigitale culture plates. […] Experimental details and results are depicted in Table 2 below: […]

SMILES strings stand for the structures.

`C=C1CCN([C@H](C)[C@](O)(Cn2cncn2)c2ccc(F)cc2F)CC1` [Efinaconazole, efinaconazole]: the Appearance entry is listed as “clear solution” in series [1] (7 mg/mL efinaconazole in F6H8, no cosolvent); “clear solution” in series [1] (10 mg/mL efinaconazole, F6H8 (90 vol %), 2-propanol (10 vol %)); “clear solution” in series [1] (15 mg/mL efinaconazole, F4H5 (90 vol %), 2-propanol (10 vol %)); “clear solution” in series [1] (15 mg/mL efinaconazole, F4H10 (90 vol %), 2-propanol (10 vol %)); “clear solution” in series [1] (15 mg/mL efinaconazole, F6H8 (85 vol %), 2-propanol (10 vol %), 1-Methyl-2-pyrrolidon (5 vol %)); “clear solution” in series [1] (15 mg/mL efinaconazole, F6H8 (85 vol %), 2-propanol (10 vol %), Ethyl acetate (5 vol %)). Further, the Appearance result is recorded as “clear solution” in series [1] (15 mg/mL efinaconazole, F6H8 (85 vol %), 2-propanol (10 vol %), N,N-Dimethyl acetamide (5 vol %)); “clear solution” in series [1] (15 mg/mL efinaconazole, F6H8 (85 vol %), 2-propanol (10 vol %), N,N-Dimethyl formamide (5 vol %)); “clear solution” in series [1] (25 mg/mL efinaconazole, F6H8 (75 vol %), 2-propanol (25 vol %)).

With `CN(C/C=C/C#CC(C)(C)C)Cc1cccc2ccccc12` [terbinafine], the Appearance entry was “clear solution” in series [1] (1 mg/mL terbinafine in F4H5, no cosolvent); “clear solution” in series [1] (1 mg/mL terbinafine in F6H8, no cosolvent); “clear solution” in series [1] (5 mg/mL terbinafine in F4H5, no cosolvent); “clear solution” in series [1] (5 mg/mL terbinafine in F6H8, no cosolvent); “clear solution” in series [1] (10 mg/mL terbinafine in F6H8, no cosolvent); “clear solution” in series [1] (10 mg/mL terbinafine, F4H5, ethanol (10 vol %)). Further, the Appearance result is listed as “clear solution” in series [1] (10 mg/ml terbinafine, F6H8 (90 vol %), 2-propanol (10 vol %)); “clear solution” in series [1] (15 mg/mL terbinafine in F6H8, no cosolvent); “clear solution” in series [1] (20 mg/mL terbinafine, F6H8 (90 vol %), ethanol (10 vol %)); “clear solution” in series [1] (20 mg/ml terbinafine, F6H8 (90 vol %), 2-propanol (10 vol %)). The “Results (inhibition zone, in words)” value in the series on T. interdigitale is recorded as “nearly complete inhibition”. The zone of inhibition at 100 µg/mL with T. interdigitale (Trichophyton interdigitale, 120 h, read-out: zones of inhibition) fell in the range of 56 to 58 mm.
